The values that follow come from patent US20160051541A1 (CHANRX CORPORATION, priority 2013, published 2016).

Structures are written as SMILES. Read-outs that look alike come from different tables or passages of the source. Where only a bound is given, the exact number is not on record here.

Data set [1] can be described thus: Example 1: plasma concentrations of vanoxerine and metabolites after a 300 mg dose in patients. It is filed as in vivo, human. The settings on record: for concentration at 1 h / concentration at 3 h / concentration at 4 h / concentration at 6 h / concentration at 8 h / concentration at 12 h / concentration at 24 h / concentration at 0.5 h: human, plasma, 300 mg; for concentration at 0.5 h: .5 h. As for the experimental part:
Each patient gave blood samples before administration of their dose, and then again at nine further time points, 30 minutes after administration, 1, 2, 3, 4, 6, 8, 12, and 24 hours post administration.

Data set [2] can be described thus: Example 2: daily doses of vanoxerine for 11 consecutive days in 12 subjects (PK, heart rate, blood pressure). Type of data set: in vivo, human. The settings on record: for PK Data (Mean +/- SD) T1/2 / PK Data (Mean +/- SD) CMax: 11 consecutive days.
The nature of data set [3]: Example 3: vanoxerine daily for 14 days in fourteen healthy patients. Type of data set: in vivo, human. As for the experimental part:
A standardized meal was served 15 minutes prior to each dosing.

Data set [4] can be described thus: Example 4: vanoxerine daily for 7 days in four patients. It is filed as in vivo, human. As to conditions: 50, 100 and 150 mg daily, all patients.
A short description of data set [5]: Pharmacokinetic tests in dogs. Type of data set: in vivo. As to conditions: dog, plasma; repetitive dosing in dogs.
The nature of data set [6]: Further studies of half-life and steady state on oral dosing. Type of data set: in vivo. The settings on record: in some cases.
Data set [7] is described as follows: Recovery of radioactivity labeled vanoxerine in rats. Type of data set: in vivo.
Data set [8] can be described thus: Preliminary studies of daily use over 7, 10 and 14 days. It is filed as in vivo. The settings on record: 75, 100, 125 and 150 mg a day over 7, 10 and 14 days.
The conditions of data set [9]: cited from earlier work.
Another data set deals with atrial fibrillation. The settings on record: canines, cited from earlier work.
Setting [10] is: 10 patients, 1.00 = below LLOQ, read-out: High concentration group average.
Setting [11] is: 15 patients, 1.00 = below LLOQ, read-out: Low concentration group average.

As for `Fc1ccc(C(OCCN2CCN(CCCc3ccccc3)CC2)c2ccc(F)cc2)cc1` [Vanoxerine, 1-[2-[bis(4-fluorophenyl)methoxy]ethyl]-4-(3-phenylpropyl)piperazine], the values for the concentration at 1 h in data set [1] (setting [10]) and in [1] (setting [11]) were 0.115 µg/mL and 0.0401 µg/mL, respectively. Further, the concentration at 3 h came to 0.156 µg/mL in data set [1] (setting [10]) and 0.0314 µg/mL in [1] (setting [11]). For the same compound, the concentration at 4 h amounted to 0.0961 µg/mL in [1] (setting [10]) and 0.0244 µg/mL in data set [1] (setting [11]). For the same compound, the concentration at 6 h in data set [1] (setting [10]) was found to be 0.0571 µg/mL; in [1] (setting [11]), 0.0167 µg/mL. Besides, the values for the concentration at 8 h in [1] (setting [10]) and in data set [1] (setting [11]) were 0.0432 µg/mL and 0.0118 µg/mL, respectively. Besides, the concentration at 12 h in data set [1] (setting [10]) was 0.0293 µg/mL; in data set [1] (setting [11]) it was 0.00631 µg/mL. The concentration at 24 h turned out to be 0.00307 µg/mL in [1] (10 patients, read-out: High concentration group average) and 0.00501 µg/mL in data set [1] (setting [11]). The concentration at 0.5 h in [1] (setting [10]) turned out to be 0.0377 µg/mL; in [1] (setting [11]), 0.017 µg/mL. For the same compound, in data set [1] (low concentration group), the “plasma levels, highest at any time point” value is approximately 0.04 µg/mL. The plasma levels detectable entry is on record as “not detectable after 8 hours” in data set [2] (25 mg daily); “detectable at 24 hours” in [2] (50, 75 and 100 mg doses). For the same compound, the “PK Data (Mean +/- SD) T1/2” value in data set [2] (50 mg daily, range 4.71-110.57) is listed as 49.39 +/− 26.18 hr (4.71-110.57); in [2] (75 mg daily, range 10.26-116.67), 52.53 +/− 37.46 (10.26-116.67) hr; in data set [2] (100 mg daily, range 5.56-125.00) it was 15.38 +/− 43.55 (5.56-125.00) hr. The “PK Data (Mean +/- SD) CMax” value was found to be 27.4 ± 15.5 ng/mL in data set [2] (75 mg daily) and 40.2 ± 26.6 ng/mL in data set [2] (100 mg daily). The steady state reached in [2] (50, 75 and 100 mg doses daily) is not above 8 days. In addition, the “heart rate and systolic blood pressure” value in data set [2] (75 and 100 mg doses daily) is “increased slightly in most subjects”; in [8] it was “increased heart rate and systolic blood pressure”. Also, the PK linearity result in data set [2] (across 50, 75 and 100 mg doses) is “linear and the dose proportional”. For the same compound, the “half-life of the drug when daily doses are given” value in data set [2] (daily doses) was “increased half-life”. In addition, in data set [2] (human, plasma, printed under the 50 mg line, +- 0.5 hr (0.5-2.0)), the Tmax (commonly the time from dosing to the highest level) was 1.27 h. In addition, in data set [3] (25, 75 and 125 mg daily for 14 days), the “steady state serum levels reported within” value fell in the range of 9 to 11 days. For the same compound, the adverse events entry in data set [3] (25, 75 and 125 mg daily for 14 days, standardized meal before dosing) is recorded as “No significant adverse events”. In addition, the “serum levels, dose proportionality” value in [3] (higher doses compared with lower doses) is “disproportionately and statistically greater levels at higher doses”. The steady-state levels achieved entry in data set [4] is on record as “within one week”. Moreover, the half-life (usually how long it takes for the measured level to halve) in [5] is approximately 66 h; in data set [6] (plasma, oral) it was not above 125 h. Moreover, the “steady state achieved within” value in [6] (oral dosing) is not above 3 days. In addition, the “recovery of administered radioactivity” value in [7] was “incomplete”. The side-effects entry in [9] (daily repetitive dose of 50 mg) is “no side-effects should be expected”; in data set [9] (higher doses) it was “some effects were seen with regard to concentration difficulties, increase systolic blood pressure, asthenia, and a feeling of drug influence”.

For `COc1ccccc1OCC(O)CN1CCN(CC(=O)Nc2c(C)cccc2C)CC1` (stereo not drawn) [ranolazine], the anti-AF effect entry in the data set on atrial fibrillation (clinically relevant conditions) is “suppress atrial fibrillation”. The “effects on ventricular myocardium” value with atrial fibrillation is reported as “minimal effects on ventricular myocardium”.
